One compound from patent US20180000745A1, “CRUCIFERIN COATED NANOPARTICLES” (priority 2016, published 2018) can be followed below.

The test deals with Caco-2 cells. Kind of test: Cell uptake of coumarin-6-loaded particles by confocal microscopy. It counts as cell-based. The settings on record: 6 h incubation; particles 0.5 mg/mL, coumarin-6 […] in DMEM. As to the method:
To study the cell uptake of nanoparticles in Caco-2 cells, coumarin-6, as a fluorescent marker, was encapsulated into the nanoparticles. The cellular uptake of coumarin-6-loaded nanoparticles was compared with free coumarin-6 (not encapsulated). In brief, 1 mL of coumarin-6 solution in ethanol at concentrations ranging from 10 to 400 μg/mL was mixed with 9 mL 2 mg/mL chitosan solution in 0.1 M acetic acid. 9 mL of 5 mg/mL cruciferin solution (solubilized at pH 12) was added dropwise to the solution while stirring. The pH of the suspension was adjusted to 5.5, stirred for 2 h and then centrifuged at 40000 g and 4° C. for 30 min, Loaded particles pellet was collected, washed twice with water and centrifuged to remove free coumarin-6. The labelled particles were re-suspended in DMEM medium at concentrations of 0.1, 0.5 and 1 mg/mL. The size and zeta potential of the re-suspended particles were measured. Caco-2 cells (10^5 cells/well) were seeded on cover glasses placed in 6-well plates (Costar, Corning, N.Y.), and incubated until cells were about 80% confluent. 2.5 mL of labelled-particles suspensions or free coumarin-6 solution in DMEM medium was added to each well and incubated for 6 h at 37° C. Then, the cells were washed three times with PBS to remove free nanoparticles and coumarin-6. Cell membranes were stained with 10 μg/mL Alexa Fluor 594-Concanavalin A conjugate in PBS for 10 min. […]

As for `CCN(CC)c1ccc2cc(-c3nc4ccccc4s3)c(=O)oc2c1` [free coumarin-6, Coumarin 6], the “fluorescence within cells (cell uptake)” value is on record as “no noticeable signal was detected”.
